Holding throughout (test): MTT assay (viability; isobolographic analysis)
What all share (assay type): cell-based
On the technique in general: Tetrazolium dyes change colour on reduction, which living cells bring about.

Assay [1] concerns ACC-201 human GC cells. To be noted: ACC-201, 72 h incubation, mean ± SEM. The procedure:
(§1) The human GC cells ACC-201, AGS, MKN-74 and NCI-N87 were placed in 96-well plates and allowed to adhere overnight. On the following day, the growth medium was removed, and the cells were treated with a series of tested MGN and DCT dilutions (2.0–75 and 0.0004–0.0404 µg/mL, respectively) for 72 h at 37 °C. […] Subsequently, a solution of MTT (5 mg/mL) was added to each well, and the cells were further incubated for 3 h at 37 °C. Tetrazolium salt was reduced to violet formazan derivatives via the succinate dehydrogenase of metabolically active cells. Insoluble formazan compounds formed inside the cells were extracted with a sodium dodecyl sulfate buffer (10% SDS in 0.01 N HCl) overnight to achieve a quantitative assessment of the amount produced. The absorbance of the samples was measured at 570 nm using Infinite M200 Pro microplate reader (Tecan, Männedorf, Switzerland). Cell viability was presented as a percentage relative to the untreated control cells.
(§2) Interactions between MGN and DCT analyzed after 72 h in four different GC cell lines (ACC-201, AGS, MKN-74 and NCI-N87) were characterized by means of an isobolographic analysis in the MTT assay. The percentage inhibition of cell viability accompanied by the specific concentrations of the tested substances (MGN and DCT) were transferred to the MS Excel spreadsheet, and the data were computed using the log–probit method. Next, the concentration–response effect graphs for the tested drugs (MGN and DCT) were drawn, and the IC50 values for every tested drug were calculated. The cooperative effect of two concentration–response lines was tested for the MGN and DCT combination, as previously described. The calculations of IC50 values (±SEM) were computed with formulas originally derived from the log–probit method and adapted to the in vitro conditions, as described earlier. The concentration–response lines for MGN and DCT were not parallel, and thus, the isobolographic additivity was illustrated graphically as an area bounded by two (upper and lower) lines of additivity. From the experimentally denoted IC50 values for MGN and DCT in the MTT assay, median additive inhibitory concentrations (IC50add) for the mixture (at the fixed ratio of 1:1 of MGN and DCT) in various cell lines (ACC-201, AGS, MKN-74 and NCI-N87) were calculated, as described previously. More information on isobolographic analysis can be found in the literature.

Assay [2] deals with AGS human GC cells. To be noted: 72 h incubation, mean ± SEM. The procedure: as §1, §2
Assay [3] deals with MKN-74 human GC cells. To be noted: MKN-74, 72 h incubation, mean ± SEM. Here is the method:
as §1, §2

Assay [4] concerns NCI-N87 human GC cells. To be noted: NCI-N87, 72 h incubation, mean ± SEM. The procedure: as §1, §2

Turning to `CC(=O)O[C@@]12CO[C@@H]1C[C@H](O)[C@@]1(C)C(=O)[C@H](O)C3=C(C)[C@@H](OC(=O)[C@H](O)[C@@H](NC(=O)OC(C)(C)C)c4ccccc4)C[C@@](O)([C@@H](OC(=O)c4ccccc4)[C@H]21)C3(C)C` [DCT, docetaxel], the IC50 in assay [1] is 2.8 ± 0.9 ng/mL; in assay [2], 2.6 ± 1.2 ng/mL; in assay [3], 4.9 ± 2.1 ng/mL; in assay [4] it was 9 ± 2.9 ng/mL.

A word on the IC50: it is the concentration needed to halve the response being measured.

These data come from paper PMC10647589, “Heterogeneous Cellular Response of Primary and Metastatic Human Gastric Adenocarcinoma Cell Lines to Magnoflorine and Its Additive Interaction with Docetaxel” (International Journal of Molecular Sciences, 2023).
